Experimental data: a melting point compilation (Tetko et al.)

Row | Compound | melting point [°C]
1 | O=S1(=O)CCC(Br)CC1 | 127 to 129
2 | CCOC(=O)c1sc2nc(CN3CCOCC3)nc(Cl)c2c1C | 110 to 112
3 | Nc1cnn(CC(=O)Nc2cccnc2)c1 | 117 to 119
4 | O=C(O)C1CCCCS1(=O)=O (configuration not stated) | 166 to 168
5 | CC(C)COc1ncc(C(=O)O)cc1Cl | 106 to 108
6 | O=C1OC(C(=O)O)Cc2ccccc21 (configuration not stated) | 151 to 153
7 | Cc1cc2n(n1)C(=O)CC(=O)N2 | 219 to 221
8 | Nc1cc(-c2ccc(Br)cc2)ncn1 | 251 to 253
9 | Cc1cc(C)nc(-n2nccc2N)n1 | 183 to 185
10 | NC(=O)COc1ccc(/C=C/C(=O)O)cc1 | 295 to 297
11 | Sc1nnnn1C1CCOCC1 | 154 to 156
12 | CC(=O)c1cccc(N(S(C)(=O)=O)S(C)(=O)=O)c1 | 185 to 187
13 | O=C(O)C1(c2cccc(C(F)(F)F)c2)CCC1 | 92 to 94
14 | CCCCn1c(CCC(=O)O)nc2cc(S(=O)(=O)N3CCOCC3)ccc21 | 136 to 138
15 | CCOc1ccc(Oc2ccc(C(F)(F)F)cc2N)cc1 | 45 to 47
16 | CCN(Cc1ccc2c(c1)OCCO2)C(=O)CCl | 213 to 215
17 | Clc1cccc2c(CBr)csc12 | 84 to 86
18 | Cc1ccc(-c2ccc(O)cc2)cc1 | 155 to 157
19 | CNC(=O)NN | 103 to 105
20 | CCOC(=O)c1cn[nH]c1C(F)F | 64 to 66
21 | COc1ccc(C2CCCCC2=O)cc1F (configuration not stated) | 78 to 80
22 | CN1C(=O)CCC(C(N)=O)C1c1cccs1 (configuration not stated) | 179 to 181
23 | CCOC(=O)c1n[nH]sc1=N | 126 to 128
24 | CCc1ccc(C(=O)c2cccc(S(C)(=O)=O)c2)cc1 | 97 to 99

Row | Compound | melting point [°C]
25 | C=CCn1c(S)nnc1-c1ccoc1C | 293 to 295
26 | CS(=O)(=O)Cc1c(C(=O)O)sc2ccccc12 | 276 to 278
27 | O=c1[nH]c(CN2CCOCC2)nc2sc3c(c12)CCCC3 | 162 to 164
28 | CCNC(=O)c1ccc(O)cc1 | 109 to 111
29 | O=C1CC(c2ccccc2)NCCN1 (configuration not stated) | 102 to 104
30 | Cn1c(C(=O)O)ccc1-c1ccccc1 | 143 to 145
31 | Nc1nnc(CC(F)(F)F)o1 | 132 to 134
32 | Cc1ccc(Cc2nnc(N)s2)cc1 | 209 to 211
33 | N#Cc1c(Cl)nsc1Cl | 64 to 66
34 | NC(=S)c1ncccn1 | 197 to 199
35 | Cc1cc(C)c(C(N)=O)c(N2CCCC2)n1 | 174 to 176
36 | N#Cc1cccc(OCCBr)c1 | 36 to 38
37 | N#Cc1cnc(Oc2ccccc2)cn1 | 99 to 101
38 | O=C1c2ccccc2C(=O)N1c1cnn(Cc2ccccc2)c1 | 149 to 151
39 | NC(Cc1ccc(O)cc1)c1nc2ccccc2[nH]1 (configuration not stated) | 193 to 195
40 | CC(=O)c1ccc(OC2CCCCC2)c(F)c1 | 48 to 50
41 | COc1cc(C#N)ccc1CBr | 89 to 91
42 | Cc1ccc(NC(=O)NCC2CCCNC2)cc1 (configuration not stated) | 161 to 163
43 | CCOc1ccc(Nc2ncccc2C(=O)O)cc1 | 189 to 191
44 | Cc1cc(Br)cc2cc(C#N)oc12 | 139 to 141
45 | Nc1ccc(NC(=O)NCC2CCCO2)cc1 (configuration not stated) | 141 to 143
46 | Cc1ccc2c(C)c(CCC(=O)O)c(=O)oc2c1 | 161 to 163
47 | Oc1ncnc(Cl)c1I | 274 to 276
48 | Cc1cc(C(=O)O)c2c(C(C)C)noc2n1 | 202 to 204

Row | Compound | melting point [°C]
49 | Cc1cc(F)cc2c(=O)c(C(=O)O)c[nH]c12 | 289 to 291
50 | CCN(Cc1ccccc1)S(=O)(=O)c1cc(C(=O)O)ccc1OC | 102 to 105
51 | Fc1ccc(COc2cccc(N3CCNCC3)c2)cc1 | 84 to 86
52 | O=C(O)C1=CC=CN2CCS(=O)(=O)N=C12 | 313 to 315
53 | O=C(CCN1CCOCC1)c1cc2ccccc2o1 | 53 to 55
54 | CC(C)(C(=O)O)C(O)c1cccc(OCc2ccccc2)c1 (configuration not stated) | 125 to 127
55 | COc1ccc(C(C)=O)cc1CN1CCCCC1 | 54 to 56
56 | CCCS(=O)(=O)Nc1ccccc1C(=O)O | 150 to 152
57 | Cc1cc(C)c(C)c(Oc2c(C(=O)O)c(C)nn2C)c1 | 215 to 217
58 | Cc1cc(Br)c2c(c1)C(=O)C(=O)N2 | 178 to 180
59 | COC(=O)c1cccc(-c2cccc(C(=O)OC)c2)c1 | 99 to 101
60 | Sc1nnc(-c2ccncc2)n1-c1ccccc1 | 290 to 292
61 | CCCCS(N)(=O)=O | 43 to 45
62 | O=C(O)CC1(CO)CC1 | 68 to 70
63 | ClCC12CC3CC(CC(C3)C1)C2 | 38 to 42
64 | Nc1c(C(=O)O)cc([N+](=O)[O-])cc1[N+](=O)[O-] | 266 to 268
65 | NCc1ccccc1CS(=O)(=O)N1CCOCC1 | 90 to 92
66 | Nc1ncn(-c2ccccn2)n1 | 174 to 176
67 | O=C(c1ccc(F)cc1)N1CCNCC1 | 74 to 76
68 | O=C(O)C1SCCc2sccc21 (configuration not stated) | 148 to 150
69 | CSC(=C(C#N)C#N)N1CCOCC1 | 143 to 145
70 | Cc1nc(-c2ccccc2N)no1 | 77 to 79

Second part, the molecule after the results:

Row | melting point [°C] | Compound
71 | 239 to 241 | COC(=O)c1cc(Cl)c(=O)[nH]c1C
72 | 251 to 253 | O=C1CSc2ccc(C(=O)O)cc2N1
73 | 104 to 106 | CN(C)S(=O)(=O)c1ccc(Cl)c([N+](=O)[O-])c1
74 | 158 to 160 | CC(C)NC(=O)c1ccc(Cl)cc1N
75 | 38 to 40 | COC(=O)c1cc(N)ccc1C
76 | 94 to 96 | CC1(C)Cc2ccc(Cl)cc2C1O (configuration not stated)
77 | 166 to 168 | Nc1cc(F)c(Br)cc1[N+](=O)[O-]
78 | 67 to 69 | Nc1cc(CCc2ccco2)no1
79 | 145 to 147 | NNc1ccc([N+](=O)[O-])cc1Cl
80 | 58 to 60 | O=C(O)CCCc1ccc(Cl)cc1
81 | 199 to 201 | O=C(O)c1cccn1Cc1ccncc1
82 | 84 to 88 | CCN(CC)S(=O)(=O)c1ccc(Cl)c(N)c1
83 | 107 to 109 | O=C(O)c1cc(S(=O)(=O)Cl)ccc1F
84 | 176 to 178 | Nc1ccc2nc(N3CCOCC3)oc2c1
85 | 64 to 66 | O=C(O)C1(c2ccc(F)cc2F)CCC1
86 | 218 to 220 | Nc1ccc(-n2cc(S(N)(=O)=O)cn2)nc1

Row | melting point [°C] | Compound
87 | 120 to 122 | Nc1cc(-c2ccccc2I)no1
88 | 223 to 225 | NC(=O)C1Cc2cc(S(N)(=O)=O)ccc2O1 (configuration not stated)
89 | 264 to 266 | O=C1Nc2cc(I)ccc2C1=O
90 | 119 to 121 | COc1ccc(Br)c(S(N)(=O)=O)c1
91 | 173 to 175 | Cc1cc(N)ccc1NC(=O)c1ccco1
92 | 42 to 44 | O=S(=O)(Cl)c1cccnc1Cl
93 | 82 to 84 | NCC(=O)Nc1cccc(F)c1
94 | 255 to 257 | N#Cc1ccccc1/C=C/C(=O)O
95 | 209 to 211 | CC1(C)Cc2cc(C(=O)O)sc2-c2ccccc21
96 | 220 to 222 | COc1ccc(NC(C)=O)cc1S(N)(=O)=O
97 | 61 to 63 | O=S(=O)(Cl)c1cc(Br)cnc1Cl
98 | 152 to 154 | Cc1ccc(Cl)c(C(=O)O)c1N
99 | 132 to 134 | COc1ccc(Br)cc1CC(=O)O
100 | 174 to 176 | CC(Nc1nc2ccccc2s1)C(=O)NN (configuration not stated)
101 | 195 to 197 | NNc1ccc(S(=O)(=O)Nc2cccc(Cl)c2)cc1[N+](=O)[O-]
102 | 93 to 95 | COc1ccc(S(=O)(=O)Nc2ccccc2Cl)cc1N
